In patent US20110230659A1, “CYCLOBUTYL PURINE DERIVATIVE, ANGIOGENESIS PROMOTING AGENT, LUMEN FORMATION PROMOTING AGENT, NEUROCYTE GROWTH PROMOTING AGENT, AND DRUG” (NATIONAL UNIVERSITY CORPORATION KAGAWA UNIVERSITY, priority 2008, published 2011):

Legend:
[1] = test system: human umbilical vein endothelial cells (HUVEC) and normal human dermal fibroblasts; assay: Measurement of lumen formation (angiogenesis kit, CD31 immunostaining, lumen area); assay type: cell-based
Method: The measurement of lumen formation was carried out in the following manner using commercially available angiogenesis kits (Kurabo), each including human umbilical vein endothelial cells (HUVEC) and normal human dermal fibroblasts. First, sample solutions were prepared by dissolving 2-Cl—C.OXT-A in physiological saline so as to achieve predetermined concentrations (1, 10, 100, 500 μmol/l, 1, 5, 10, 50 mmol/l). Then, the sample solutions containing 2-Cl—C.OXT-A at the predetermined concentrations respectively were added to media provided in the kits so that their concentrations became 10 v/v %. Thus, lumen formation media were prepared. The final concentrations of 2-Cl—C.OXT-A in the lumen formation media were 0.1, 1, 10, 50, 100, 500 μmol/l, 1 and 5 mmol/1.
Using each of the lumen formation media, the human umbilical vein endothelial cells (HUVEC) and the normal human dermal fibroblasts were cultured for 10 days. After the culture, the human umbilical vein endothelial cells (HUVEC) were immunostained using a lumen staining kit (for CD31 staining, Kurabo). Then, using NIH Image (image processing and analysis software), the area of a portion stained by the immunostaining (lumen area) was measured. As a control, a medium provided in the kit was used instead of the lumen formation medium to carry out the culture, and the cells were immunostained and the lumen area was measured in the same manner as in the above. Then, using the following equation (II), the relative value of lumen area in the culture using each of the lumen formation media containing 2-Cl—C.OXT-A at the predetermined concentrations was calculated.
In the present example, the relative value of lumen area was calculated in the same manner as in the lumen formation measurement in Example 1, except that the measurement was carried out with respect to four groups respectively using media Nos. 5 to 8 prepared by adding 2-Cl—C.OXT-A and PD98059 to media provided in the above-described angiogenesis kits (Kurabo) so that their concentrations became as shown in Table 2 below. In the group using the medium No. 7, the culture was conducted using the medium No. 7 from the first to third days of the culture and the medium No. 5 from the fourth to tenth days of the culture, and in the group using the medium No. 8, the culture was conducted using the medium No. 8 from the first to third days of the culture and the medium No. 6 from the fourth to tenth days of the culture.
In the present example, the relative value of lumen area was calculated in the same manner as in the lumen formation measurement in Example 1, except that the measurement was carried out with respect to six groups respectively using media Nos. 15 to 20 prepared by adding 2-Cl—C.OXT-A, VEGF (positive control), and SU5416 to media provided in the above-described angiogenesis kit (Kurabo) so that their concentrations became as shown in Table 4 below. In the group using the medium No. 16, the culture was conducted using the medium No. 16 from the first to third days of the culture and the medium No. 15 from the fourth to tenth days of the culture; in the group using the medium No. 18, the culture was conducted using the medium No. 18 from the first to third days of the culture and the medium No. 17 from the fourth to tenth days of the culture; and in the group using the medium No. 20, the culture was conducted using the medium No. 20 from the first to third days of the culture and the medium No. 19 from the fourth to tenth days of the culture.

JNK = JNK activation (phosphorylation) immunoblot in HUVEC; assay type: cell-based, human; settings: 100 μmol/l; 0 to 60 minutes
Method: First, to a HuMedia-EB2 medium (Kurabo) to which 2 v/v % inactivated fetal bovine serum (FBS) had been added, 2-Cl—C.OXT-A was added so that its concentration became 100 μmol/l. Thus, a medium was prepared. Using the medium, human umbilical vein endothelial cells (HUVEC) were cultured for predetermined periods (0, 10, 20, 30, 45, and 60 minutes).
After the culture, cells were collected. The collected cells were lysed by adding a cell lysis buffer (SDS-lysis buffer) thereto, and heat-denatured at 95° C. for 5 minutes. The solubilized protein in an amount corresponding to 5 v/v % of the heat-denatured cell lysate was subjected to electrophoresis using 10% SDS-polyacrylamide gel, whereby the solubilized protein was transferred onto a nitrocellulose membrane (Amersham Biosciences). […]
The enzymes were visualized with SuperSignal (registered trademark) West Pico Chemiluminescent Substrate (Pierce), and detected by being exposed to RX—U X-ray film (FUJIFILM Corporation). From the detected bands, the respective phosphoenzymes and total enzymes were quantified using an NIH image software. Furthermore, the relative value (−fold) of each phosphoenzyme was calculated by substituting the measured value of the phosphoenzyme into the following equation (III).

**Q.** Which “relative value of lumen area compared with control” value ([1]; Example 7, medium No. 6: only 2-Cl—C.OXT-A 10 μmol/l) does the source give for `Nc1nc(Cl)nc2c1ncn2C1CC(CO)C1CO` (stereo not drawn) [2-Cl—C.OXT-A, 6-amino-2-chloro-9-[trans-trans-2,3-bis(hydroxymethyl)cyclobutyl]purine] here?
**A.** about 3 fold

**Q.** What about the lumen area ([1]; Example 9, medium No. 17: 2-Cl—C.OXT-A 10 μmol/l) of the same compound?
**A.** increased markedly

**Q.** And the “relative value of lumen area” value ([1]; final concentration 100 nmol/l to 1 mmol/l, versus control)?
**A.** larger than that of the control

**Q.** What about the “stained area (lumen formation, immunostaining photographs)” value ([1]; final concentration 10 μmol/l to 1 mmol/l, 10 days, versus control) of the same compound?
**A.** larger than that in the control

**Q.** What about the “relative value of lumen area” value ([1]; final concentration 100 μmol/l, highest activity) of the same compound?
**A.** 3.8

**Q.** And the “lumen formation promoting-activity compared with VEGF (relative value of lumen area)” value ([1]; final concentration 10 to 500 μmol/l, VEGF 10 ng/ml)?
**A.** higher than that in Comparative Example 7

**Q.** And the “lumen formation promoting-activity compared with VEGF (photographs)” value ([1]; final concentrations 10 and 100 μmol/l, VEGF 10 ng/ml)?
**A.** higher than that in Comparative Example 7

**Q.** And the “amount of pJNK” value (JNK)?
**A.** not changed
